Data reported in patent publication US3991057A, “C-Piperazino-pyridine sulfonamides” (A. Christiaens Societe Anonyme, priority 1970, dated 1976).
Counter-ions that a name gives are not always drawn. Like-named read-outs stand apart in the source and are kept apart here.

Key:
[1] = test system: carrageenan-induced paw oedema; assay: Acute oedema induced by carrageenan (anti-inflammatory test, rat paw swelling by plethysmography); assay type: in vivo; settings: for inhibition in vivo at 100 mg/kg: Rattus norvegicus, read-out: Acute oedema induced by carrageenan, % of inhibition
Protocol: The anti-inflammatory properties are determined as follows:
The compounds to be tested are given as freshly prepared solutions or suspensions by oral route one hour before injecting the paw with carrageenan, a known inflammatory agent.
The inflammatory agent either in aqueous solution or suspension is then injected into the plantar tissue of the right hind paw of each rat, the left paw remaining untreated and serving as control. Each animal receives for example 0.05 ml of an aqueous solution containing 1 % of carrageenan and 0.9 % of sodium chloride.
4 hours after injection, the importance of swelling is determined by plethysmography and is expressed as a percent of the volume of the control paw.
The anti-inflammatory effect expressed as a percent of inhibition is obtained by comparison between rats treated with the anti-inflammatory agent and a control group of rats.
100 mg/kg of anti-inflammatory agent are administered by oral route.

[2] = test system: test animal (left carotid and femoral artery flow, ventricular and aortic pressure); assay: Cardiovascular properties (flow rates of carotid and femoral artery, ventricular and aortic pressures) in the test animal; assay type: in vivo; parameters: ventricular and aortic pressures after moderate lowering: unit not given here; settings: for ventricular and aortic pressures after sharp fall: from 130 mm of Hg
Protocol: Some compounds of this invention also have interesting cardiovascular properties so that they may be used as cerebral, coronary and peripheral vasodilators and hypotension-inducing agents, whereby the hypotension activity may occur primarily or secondarily with respect to the peripheral vasodilatation.
These cardiovascular properties have been found as follows:
After administration of the compound at the hereafter-indicated doses, the following parameters are measured on the test animal: the electrocardiogram, the left ventricular pressure, the amplified telediastolic pressure, the derivative of the ventricular pressure with respect to time (dp/dt), the aortic pressure, the average and pulsatile blood flow of the left carotid and femoral artery.

[3] = 100 mg/kg oral, one hour before carrageenan, 4 hours after injection

SMILES: CC(=O)Oc1ccccc1C(=O)O [Acetosalicylic acid, reference compound]
- inhibition in vivo at 100 mg/kg ([1]; po, 4 h): 0%

SMILES: CCNS(=O)(=O)c1cccnc1N1CCN(C)CC1 [Example 4, 2-(4'-methyl-1'-piperazinyl)-pyridine-3-ethylsulfonamide]
- inhibition in vivo at 100 mg/kg [1, 3]: 50%

SMILES: CCN(CC)S(=O)(=O)c1cccnc1N1CCN(C)CC1 [Example 5, 2-(4'-methyl-1'-piperazinyl)-pyridine-3-diethylsulfonamide dihydrochloride]
- inhibition in vivo at 100 mg/kg [1, 3]: 44%

SMILES: CCNS(=O)(=O)c1ccc(N2CCN(C)CC2)nc1 [Example 11, 2-(4'-methyl-1'-piperazinyl)-pyridine-5-ethylsulfonamide]
- inhibition in vivo at 100 mg/kg [1, 3]: 42.4%

SMILES: CN1CCN(c2ncccc2C#N)CC1 [Example 14, 2-(4'-methyl-1'-piperazinyl)-3-cyanopyridine hydrochloride]
- inhibition in vivo at 100 mg/kg [1, 3]: 63.2%

SMILES: CNC(=O)c1cccnc1N1CCN(C)CC1 [Example 19, 2-(4'-methyl-1'-piperazinyl)-pyridine-3-methylcarboxamide]
- inhibition in vivo at 100 mg/kg [1, 3]: 51.2%

SMILES: CCNC(=O)c1cccnc1N1CCN(C)CC1 [Example 21, 2-(4'-methyl-1'-piperazinyl)-pyridine-3-ethylcarboxamide]
- inhibition in vivo at 100 mg/kg [1, 3]: 44.4%

SMILES: CC(C)NC(=O)c1cccnc1N1CCN(C)CC1 [Example 22, 2-(4'-methyl-1'-piperazinyl)-pyridine-3-isopropylcarboxamide]
- inhibition in vivo at 100 mg/kg [1, 3]: 40%

SMILES: CN1CCN(c2ccc(C#N)cn2)CC1 [Example 23, 2-(4'-methyl-1'-piperazinyl)-5-cyanopyridine]
- inhibition in vivo at 100 mg/kg [1, 3]: 48.8%

SMILES: CN1CCN(c2ccc(C(=O)N(C)C)cn2)CC1 [Example 25, 2-(4'-methyl-1'-piperazinyl)-5-dimethylcarboxamide]
- inhibition in vivo at 100 mg/kg [1, 3]: 28.8%

SMILES: CC(C)NC(=O)c1ccc(N2CCN(C)CC2)nc1 [Example 27, 2-(4'-methyl-1'-piperazinyl)-5-isopropylcarboxamide]
- inhibition in vivo at 100 mg/kg [1, 3]: 32%

SMILES: CN1CCN(c2ccncc2S(N)(=O)=O)CC1 [Example 28, 4-(4'-methyl-1'-piperazinyl)-pyridine-3-sulfonamide]
- duration of activity on / increase of the carotid and femoral flow rates ([2]; 2 mg/kg): more than 5 min
- time to return of ventricular and aortic pressures to the starting values / reversal of lowering ([2]; 2 mg/kg): ≤ 2 min
- ventricular and aortic pressures after moderate lowering ([2]; 2 mg/kg, from 160 mm of Hg): 100
- increase of the femoral flow rate ([2]; 2 mg/kg, maximum): 100%
- increase of the carotid flow rate ([2]; 2 mg/kg, maximum where stated): 150%
- phenomena (flow rates and pressures) compared with 2 mg/kg ([2]; 4 mg/kg): The same phenomena occur
- time to return of pressures to the starting values ([2]; 4 mg/kg): 40 min
- ventricular and aortic pressures after lowering ([2]; 4 mg/kg, from 160 mm of Hg): 70 mm of Hg
- phenomena (flow rates and pressures) compared with 4 mg/kg ([2]; 8 mg/kg): identical phenomena are observed
- time to return of pressures to their starting value ([2]; 8 mg/kg): 50 min

SMILES: CNS(=O)(=O)c1cnccc1N1CCN(C)CC1 [Example 29, 4-(4'-methyl-1'-piperazinyl)-pyridine-3-methylsulfonamide]
- duration of increase of the femoral flow rate ([2]; 2 mg/kg): less than 5 min
- increase of the femoral flow rate ([2]; 2 mg/kg, maximum): 80%
- duration of increase of the carotid and femoral flow rates ([2]; 4 mg/kg): 10 min
- modification of the pressures ([2]; 4 mg/kg): slight reflex modification of the pressures
- increase of the carotid flow rate ([2]; 4 mg/kg, maximum where stated): 120%
- increase of the femoral flow rate ([2]; 4 mg/kg, maximum where stated): 80%
- increase of the carotid flow rate ([2]; 10 mg/kg): 300%
- phenomena (flow rates and pressures) compared with 4 mg/kg ([2]; 10 mg/kg): identical phenomena occur which are however stronger and of longer duration

SMILES: CCN(CC)S(=O)(=O)c1cnccc1N1CCN(C)CC1 [Example 32, 4-(4'-methyl-1'-piperazinyl)-pyridine-3-diethylsulfonamide]
- inhibition in vivo at 100 mg/kg [1, 3]: 44.8%
- time to fall of cardiac and peripheral pressures ([2]; 2 mg/kg): ≤ 45 s
- cardiac and peripheral pressures on recovery ([2]; 2 mg/kg, after 5 minutes): 135 mm of Hg
- cardiac and peripheral pressures after fall ([2]; 2 mg/kg, from 150 mm of Hg): 75 mm of Hg
- increase of the carotid flow rate ([2]; 2 mg/kg, maximum where stated): 60%
- duration of hypotension / fall of pressure ([2]; 4 mg/kg): more than 20 min
- time to return of pressures to the starting values ([2]; 4 mg/kg): > 70 min
- pressure on return to the starting values ([2]; 4 mg/kg, after 70 minutes): 130 mm of Hg
- pressure in moderate hypotension ([2]; 4 mg/kg, from 135 mm of Hg): 75 mm of Hg

SMILES: CC(C)NS(=O)(=O)c1cnccc1N1CCN(C)CC1 [Example 33, 4-(4'-methyl-1'-piperazinyl)-pyridine-3-isopropylsulfonamide]
- duration of increase of the average carotid flow rate ([2]; 2 mg/kg): 5 min
- increase of the average carotid flow rate ([2]; 2 mg/kg): slight increase
- time the carotid flow rate remains high compared to control values ([2]; 4 mg/kg): 10 min
- time to increase of the carotid flow rate ([2]; 4 mg/kg): within two minutes
- time to fall of femoral flow rate to the starting values ([2]; 4 mg/kg, after injection): ≤ 2 min
- increase of the carotid flow rate ([2]; 4 mg/kg, maximum where stated): 300%
- increase of the femoral flow rate ([2]; 4 mg/kg, maximum where stated): 200%

SMILES: CN1CCN(CCNS(=O)(=O)c2cnccc2N2CCN(C)CC2)CC1 [Example 38, 4-(4'-methyl-1'-piperazinyl)-pyridine-3-(4"-methyl-1"-piperazinyl)-ethylsulfonamide]
- Acute oedema induced by carrageenan, % of inhibition [1, 3]: 60.8%
- activity on the carotid and femoral flow rates ([2]; 2 mg/kg): slight and breaf
- duration of activity on / increase of the carotid and femoral flow rates ([2]; 2 mg/kg): 5 min
- duration of action on the carotid and femoral flow rates ([2]; 4 mg/kg and 8 mg/kg): 10 min
- increase of the average flow rates (carotid and femoral) ([2]; 4 mg/kg and 8 mg/kg): 100%

SMILES: COCCNS(=O)(=O)c1cnccc1N1CCN(C)CC1 [Example 39, 4-(4'-methyl-1'-piperazinyl)-pyridine-3-methyoxyethylsulfonamide]
- inhibition in vivo at 100 mg/kg [1, 3]: 55.2%
- time to return of ventricular and aortic pressures to the starting values / reversal of lowering ([2]; 2 mg/kg): less than 3 min
- ventricular and aortic pressures after sharp fall ([2]; 2 mg/kg): 90 mm of Hg
- increase of the carotid flow rate ([2]; 2 mg/kg, maximum where stated): 75%
- duration of hypotension / fall of pressure ([2]; 4 mg/kg): 2 min
- increase of the peripheral flow rates ([2]; 4 mg/kg): 50%
- time to return of pressures to the starting values ([2]; 4 mg/kg): 30 min
- ventricular and aortic pressures after sharp fall ([2]; 4 mg/kg): 40 mm of Hg

SMILES: CCOCCNS(=O)(=O)c1cnccc1N1CCN(C)CC1 [Example 40, 4-(4'-methyl-1'-piperazinyl)-pyridine-3-ethoxyethylsulfonamide]
- inhibition in vivo at 100 mg/kg [1, 3]: 60%
- duration of activity on / increase of the carotid and femoral flow rates ([2]; 2 mg/kg): less than 5 min
- variation of the cardiac and peripheral pressures ([2]; 2 mg/kg): without variation
- increase of the femoral flow rate ([2]; 2 mg/kg, maximum): 50%
- increase of the carotid flow rate ([2]; 2 mg/kg, maximum where stated): 300%
- duration of hypotension / fall of pressure ([2]; 4 mg/kg): 3 min
- increase of the carotid flow rate ([2]; 4 mg/kg): moderate increase of the carotid flow rate remains after return of the pressure rates to normal conditions
- return of blood pressure to the starting values ([2]; 4 mg/kg): quick return to the starting values
- blood pressure after moderate fall ([2]; 4 mg/kg, from 150 mm of Hg): 90 mm of Hg

SMILES: CN(C)C=NS(=O)(=O)c1cnccc1N1CCN(C)CC1 [Example 48, 4-(4'-methyl-1'-piperazinyl)-pyridine-3-dimethylaminomethinesulfonamide]
- duration of activity on / increase of the carotid and femoral flow rates ([2]; 2 mg/kg): 5 min
- increase of the carotid and femoral flow rates ([2]; 2 mg/kg): 100%
- duration of increase of the carotid and femoral flow rates ([2]; 4 mg/kg): 10 min
- fall of the ventricular and aortic pressures ([2]; 4 mg/kg): temporary and moderate fall
- increase of the carotid and femoral flow rates ([2]; 4 mg/kg, compared with 2 mg/kg): stronger and longer
- phenomena (flow rates and pressures) compared with 4 mg/kg ([2]; 8 mg/kg): Identical phenomena are observed

SMILES: O=C(O)c1ccccc1Nc1cccc(C(F)(F)F)c1 [Flufenamic acid, reference compound]
- inhibition in vivo at 100 mg/kg [1, 3]: 34%

SMILES: CN1c2ccccc2Sc2ccc(CC(=O)O)cc21 [Methiazinic acid, reference compound]
- inhibition in vivo at 100 mg/kg [1, 3]: 46%

SMILES: O=C(O)c1cccnc1Nc1cccc(C(F)(F)F)c1 [Niflumic acid, reference compound]
- inhibition in vivo at 100 mg/kg [1, 3]: 32%

SMILES: CCCCC1C(=O)N(c2ccccc2)N(c2ccccc2)C1=O [Phenylbutazone, reference compound]
- inhibition in vivo at 100 mg/kg [1, 3]: 41%
